Experimental data: US8232315B2, “Methods for treating drug addiction and improving addiction-related behavior” (SK Biopharmaceuticals Co., Ltd., priority 2009, dated 2012)
Entries after “also recorded” stand apart in the source; their conditions may differ.

Tested on: rhesus monkeys trained to self-administer cocaine
Test: Cocaine self-administration, dose-ranging studies with peak unit dose of i.v. cocaine and food components
Assay type: in vivo, rhesus monkeys (Macaca mulatta)
Method: The test compound (O-carbamoyl-(D)-phenylalaminol) was tested for the effects on cocaine self-administration in rhesus monkeys. Rhesus monkeys were trained to self-administer cocaine (0.032 mg/kg/inj, i.v.) and 1 g banana-flavored food pellets during 2-hr experimental sessions in the Rapid Assessment Procedure. Each session consisted of four 20-min components of drug availability (100-min), each separated by a 5-min timeout period. The four components of drug availability were preceded and followed by […] components of food availability. During training, unit doses of cocaine were varied across components of the session (0.001-0.03 or 0.01-0.32 mg/kg/inj) to provide full dose effect curves for cocaine self-administration. The position and slope of the dose-effect curve varied among monkeys and, generally, was represented by an inverted-U shape function characteristic for cocaine self-administration under fixed-ratio schedules. In some sessions, the unit dose of cocaine at the peak of the dose-effect curve for i.v. self-administration (0.0032 or 0.032 mg/kg/inj) was kept constant across components of the session. After baseline cocaine dose-effect curves and the effects of peak dose availability throughout the session were stable, experiments with test compound were begun.
Two types of cocaine self-administration experiments were conducted to evaluate pretreatment with test compound: (1) test compound dose-ranging studies and (2) effects of a single dose of test compound on cocaine dose-effect curves. In initial dose-ranging experiments, test compound was studied in individual monkeys by administering i.m. doses of 10-32 mg/kg 30-min before the session.
Subjects. Five male rhesus monkeys (Macaca mulatta), 89B013, 96D155, 97D105, RQ22 15, and 93N082, were trained to respond for the delivery of 1-g banana pellets under a program of gradually increasing values of a fixed-ratio (FR) schedule until performance was maintained under the terminal FR 30 response schedule. Then, a double-lumen intravenous catheter was surgically implanted under aseptic-conditions in each monkey. Subsequently, monkeys were trained to respond for cocaine (see below). All monkeys were maintained under identical housing conditions as specified under contract DA-7-8073. Individual monkeys had visual, auditory, and olfactory contact with other monkeys, and several types of enrichment devices were provided in the home chamber.
Apparatus. All experimental equipment was identical to that used in our previously described drug self-administration studies. Briefly, each monkey was housed individually in a well-ventilated stainless steel chamber (64×64×79 cm). The home cages of all monkeys were modified to include an operant panel (28×28 cm) mounted on the front wall and fitted with response keys that could be trans-illuminated by red or green stimulus lights (LEDs). The operant panel also supported an externally-mounted pellet dispenser (Gerbrands, Model G5210) that delivered 1 gm fruit-flavored food pellets (P. J. Noyes Co., Lancaster, N.H.) to a food receptacle mounted on the cage beneath the operant response panel. Two syringe pumps (Model B5P-IE, Braintree Scientific, Braintree, Mass.; or Model 980210, Harvard Apparatus, South Natick, Mass.) were mounted above each cage for delivery of saline or drug solutions through the double-lumen intravenous catheters. Operation of the operant panels and data collection were accomplished with an LBM-compatible computer supplied by Med Associates, Inc., and located in an adjacent room. The experimental control hardware was supplied by Med Associates, Inc., and was controlled by customized-software written in MedState Notation.
Test sessions. A diagram of the Rapid Assessment Procedure is shown in the drawing. Test sessions occurred twice daily beginning at 11 a.m. and 3 p.m. […]

SMILES: NC(=O)OC[C@H](N)Cc1ccccc1 [test compound, O-carbamoyl-(D)-phenylalaminol]
- Effect on i.v. cocaine self-administration behavior (10 mg/kg i.m., any of the four monkeys): did not alter
- Effect on self-administration of the peak unit dose of i.v. cocaine (10 mg/kg i.m., averaged for the group): did not have consistent effects; also recorded: without appreciable effect
- Food-maintained performance, Food 1 and Food 2 (10 mg/kg i.m., monkeys 89B013 and RQ2215): unchanged
- Food-maintained responding, Food 2 (10 mg/kg i.m., monkeys 96D155 and 93N082): decreased food-maintained responding
- Food-maintained behavior, Food 1 (18 mg/kg i.m., any monkey): not appreciably affected
- Decrease in self-administration of the peak unit dose of i.v. cocaine (18 mg/kg i.m., monkey 89B013): approximately 50%
- Food-maintained behavior, Food 2 (18 mg/kg i.m., monkeys 89B013 and 93N082): greatly decreased
- Food-maintained behavior, Food 2 (18 mg/kg i.m., monkeys 96D155 and RQ2215): did not change behavior
- Effect on i.v. self-administration behavior (18 mg/kg i.m., remaining three subjects): did not appreciably alter
- Decrease in self-administration of the peak unit dose of i.v. cocaine (32 mg/kg i.m. 30 min before session, averaged for the group of monkeys): approximately 50%
- Effect on food-maintained behavior (32 mg/kg i.m. (18 or 32 mg/kg), prior to or following cocaine components): without consistently disrupting food-maintained behavior; also recorded: did not consistently alter
- Effect on self-administration of the peak unit dose of i.v. cocaine (32 mg/kg i.m., averaged for the group): markedly decreased
- Reduction of self-administration of the peak unit dose of i.v. cocaine (32 mg/kg i.m., each of the three monkeys studied): ≥ 50%
- Food-maintained performance, Food 1 and Food 2 (32 mg/kg i.m., monkey 93N082): markedly decreased
- Food-maintained responding, either food component (32 mg/kg i.m., monkeys 96D155 and RQ2215): did not alter responding
- Effect on food-maintained behavior (pretreatment doses 10-32 mg/kg i.m., averaged for the group, dose-ranging studies): only inconsistent effects
